{
  "source": "paper PMC5847526",
  "about": "“Inhibition of neuronal FLT3 receptor tyrosine kinase alleviates peripheral neuropathic pain in mice” (Nature Communications, 2018)",
  "key": {"PRLR-JAK2": {"target": "PRLR-JAK2 (Homo sapiens, UniProt P16471)", "experiment": "cell-based", "design": "PathHunter eXpress functional assay (DiscoverX tkMAX), inhibition of reference ligand response", "details": "read-out: % Inhibition of reference binding (Table 3)"}, "[1]": {"target": "Interleukin-1 receptor-associated kinase 4 (IRAK4) (Homo sapiens, UniProt Q9NWZ3)", "experiment": "kinase selectivity panel, inhibition of staurosporine binding at a single concentration ([…])"}, "c-Ret-GFRα2": {"target": "c-Ret-GFRα2 (Homo sapiens, UniProt P07949)", "experiment": "cell-based", "design": "PathHunter eXpress functional assay (DiscoverX tkMAX), inhibition of reference ligand response", "details": "read-out: % Inhibition of reference binding (Table 3)"}, "PKCbeta 2": {"target": "T1, PKCbeta 2 (Homo sapiens, UniProt P05771)", "T1 construct": "gene PRKCB; isoform beta 2", "T1 sequence (P05771 whole entry, canonical isoform)": "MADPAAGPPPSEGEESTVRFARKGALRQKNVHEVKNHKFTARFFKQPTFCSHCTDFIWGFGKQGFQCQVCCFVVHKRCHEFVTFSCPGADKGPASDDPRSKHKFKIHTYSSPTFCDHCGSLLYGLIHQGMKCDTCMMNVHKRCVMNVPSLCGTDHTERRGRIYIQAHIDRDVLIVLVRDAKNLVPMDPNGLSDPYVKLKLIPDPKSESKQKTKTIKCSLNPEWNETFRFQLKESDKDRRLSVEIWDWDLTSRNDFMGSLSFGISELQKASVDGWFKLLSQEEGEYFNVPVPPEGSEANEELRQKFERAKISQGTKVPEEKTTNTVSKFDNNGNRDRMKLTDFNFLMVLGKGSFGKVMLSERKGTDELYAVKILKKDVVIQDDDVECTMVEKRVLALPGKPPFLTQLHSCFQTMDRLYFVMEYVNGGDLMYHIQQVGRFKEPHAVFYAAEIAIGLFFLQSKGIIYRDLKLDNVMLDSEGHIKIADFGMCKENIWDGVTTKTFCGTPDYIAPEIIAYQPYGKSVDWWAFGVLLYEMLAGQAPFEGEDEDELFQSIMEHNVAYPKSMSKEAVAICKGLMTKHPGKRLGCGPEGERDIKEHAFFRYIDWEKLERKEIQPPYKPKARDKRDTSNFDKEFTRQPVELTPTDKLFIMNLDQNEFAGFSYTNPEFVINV", "experiment": "biochemical", "design": "ExpresS Diversity kinase profile (Eurofins Cerep P10), per cent inhibition", "details": "read-out: Inhibition of reference binding (Table 4)"}, "ROCK1": {"target": "ROCK1 (Homo sapiens, UniProt Q13464)", "experiment": "biochemical", "design": "ExpresS Diversity kinase profile (Eurofins Cerep P10), per cent inhibition", "details": "read-out: Inhibition of reference binding (Table 4)"}, "PAK2": {"target": "PAK2 (Homo sapiens, UniProt Q13177)", "experiment": "biochemical", "design": "ExpresS Diversity kinase profile (Eurofins Cerep P10), per cent inhibition", "details": "read-out: Inhibition of reference binding (Table 4)"}, "Abl kinase": {"target": "T2, Abl kinase (Homo sapiens, UniProt P00519)", "T2 construct": "gene ABL1", "experiment": "biochemical", "design": "ExpresS Diversity kinase profile (Eurofins Cerep P10), per cent inhibition", "details": "read-out: Inhibition of reference binding (Table 4)"}, "JNK1": {"target": "T3, JNK1 (Homo sapiens, UniProt P45983)", "T3 construct": "gene MAPK8", "experiment": "biochemical", "design": "ExpresS Diversity kinase profile (Eurofins Cerep P10), per cent inhibition", "details": "read-out: Inhibition of reference binding (Table 4)"}, "EGFR kinase": {"target": "EGFR kinase (Homo sapiens, UniProt P00533)", "experiment": "biochemical", "design": "ExpresS Diversity kinase profile (Eurofins Cerep P10), per cent inhibition", "details": "read-out: Inhibition of reference binding (Table 4)"}, "c-KIT": {"target": "c-KIT (Homo sapiens, UniProt P10721)", "experiment": "biochemical", "design": "ExpresS Diversity kinase profile (Eurofins Cerep P10), per cent inhibition", "details": "read-out: Inhibition of reference binding (Table 4)"}, "KDR": {"target": "KDR (Homo sapiens, UniProt P35968)", "experiment": "biochemical", "design": "ExpresS Diversity kinase profile (Eurofins Cerep P10), per cent inhibition", "details": "read-out: Inhibition of reference binding (Table 4)"}, "p38α kinase": {"target": "T4, p38α kinase (Homo sapiens, UniProt Q16539)", "T4 construct": "gene MAPK14", "experiment": "biochemical", "design": "ExpresS Diversity kinase profile (Eurofins Cerep P10), per cent inhibition", "details": "read-out: Inhibition of reference binding (Table 4)"}, "CHK2": {"target": "T5, CHK2 (Homo sapiens, UniProt O96017)", "T5 construct": "gene CHEK2", "T5 sequence (O96017 whole entry)": "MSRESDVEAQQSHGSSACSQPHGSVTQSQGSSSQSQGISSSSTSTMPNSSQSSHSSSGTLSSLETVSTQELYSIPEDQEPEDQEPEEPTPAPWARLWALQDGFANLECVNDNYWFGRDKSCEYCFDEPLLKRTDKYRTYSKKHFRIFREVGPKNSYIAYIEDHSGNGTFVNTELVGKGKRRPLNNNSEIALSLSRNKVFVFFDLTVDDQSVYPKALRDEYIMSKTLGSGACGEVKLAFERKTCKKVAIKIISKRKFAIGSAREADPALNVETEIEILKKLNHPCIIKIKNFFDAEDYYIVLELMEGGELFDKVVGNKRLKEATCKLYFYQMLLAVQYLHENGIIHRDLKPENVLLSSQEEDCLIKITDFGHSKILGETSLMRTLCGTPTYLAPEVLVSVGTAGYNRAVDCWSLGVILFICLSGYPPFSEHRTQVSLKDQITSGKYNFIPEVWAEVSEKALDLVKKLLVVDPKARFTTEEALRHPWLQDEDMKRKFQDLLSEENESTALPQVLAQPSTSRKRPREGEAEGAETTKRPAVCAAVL", "experiment": "biochemical", "design": "ExpresS Diversity kinase profile (Eurofins Cerep P10), per cent inhibition", "details": "read-out: Inhibition of reference binding (Table 4)"}, "IRK": {"target": "T6, IRK (Homo sapiens, UniProt P06213)", "T6 construct": "gene INSR; insulin receptor kinase", "T6 sequence (P06213 whole entry)": "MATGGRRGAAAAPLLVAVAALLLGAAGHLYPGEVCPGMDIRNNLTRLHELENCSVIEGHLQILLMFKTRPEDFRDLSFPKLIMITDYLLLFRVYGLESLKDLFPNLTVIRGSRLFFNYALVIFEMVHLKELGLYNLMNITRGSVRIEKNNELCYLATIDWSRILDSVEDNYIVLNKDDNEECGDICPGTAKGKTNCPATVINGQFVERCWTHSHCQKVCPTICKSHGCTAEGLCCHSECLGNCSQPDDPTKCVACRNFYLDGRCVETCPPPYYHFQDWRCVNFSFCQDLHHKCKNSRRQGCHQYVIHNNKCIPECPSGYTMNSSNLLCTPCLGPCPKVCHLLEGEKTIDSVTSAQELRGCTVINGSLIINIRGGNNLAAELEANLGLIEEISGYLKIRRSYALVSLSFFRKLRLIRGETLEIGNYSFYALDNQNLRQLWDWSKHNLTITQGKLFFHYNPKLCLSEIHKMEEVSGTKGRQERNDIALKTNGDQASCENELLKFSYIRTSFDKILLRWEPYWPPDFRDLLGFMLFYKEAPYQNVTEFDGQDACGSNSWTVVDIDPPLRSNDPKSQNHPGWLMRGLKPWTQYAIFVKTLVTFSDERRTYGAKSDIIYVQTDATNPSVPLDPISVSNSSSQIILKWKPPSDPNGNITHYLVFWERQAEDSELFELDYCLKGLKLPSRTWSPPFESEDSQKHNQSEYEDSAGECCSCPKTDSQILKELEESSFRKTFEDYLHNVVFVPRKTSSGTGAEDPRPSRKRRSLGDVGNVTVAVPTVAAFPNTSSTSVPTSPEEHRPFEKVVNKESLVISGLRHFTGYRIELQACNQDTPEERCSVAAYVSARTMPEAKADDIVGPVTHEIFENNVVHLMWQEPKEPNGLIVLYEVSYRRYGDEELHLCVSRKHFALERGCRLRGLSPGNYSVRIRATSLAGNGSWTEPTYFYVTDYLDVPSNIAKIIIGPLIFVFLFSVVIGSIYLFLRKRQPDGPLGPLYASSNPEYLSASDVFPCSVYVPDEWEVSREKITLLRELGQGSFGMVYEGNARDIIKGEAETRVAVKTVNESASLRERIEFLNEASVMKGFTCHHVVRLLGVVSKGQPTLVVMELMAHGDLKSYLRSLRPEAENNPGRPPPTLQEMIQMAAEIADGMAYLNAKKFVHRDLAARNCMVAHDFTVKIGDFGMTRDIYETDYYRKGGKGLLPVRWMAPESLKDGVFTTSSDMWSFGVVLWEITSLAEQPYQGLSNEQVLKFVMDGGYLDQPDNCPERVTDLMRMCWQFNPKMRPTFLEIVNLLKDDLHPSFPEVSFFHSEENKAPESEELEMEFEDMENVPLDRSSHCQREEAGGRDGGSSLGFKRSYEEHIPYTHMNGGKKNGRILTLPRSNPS", "experiment": "biochemical", "design": "ExpresS Diversity kinase profile (Eurofins Cerep P10), per cent inhibition", "details": "read-out: Inhibition of reference binding (Table 4)"}, "EphA3 kinase": {"target": "EphA3 kinase (Homo sapiens, UniProt P29320)", "experiment": "biochemical", "design": "ExpresS Diversity kinase profile (Eurofins Cerep P10), per cent inhibition", "details": "read-out: Inhibition of reference binding (Table 4)"}, "Lck kinase": {"target": "Lck kinase (Homo sapiens, UniProt P06239)", "experiment": "biochemical", "design": "ExpresS Diversity kinase profile (Eurofins Cerep P10), per cent inhibition", "details": "read-out: Inhibition of reference binding (Table 4)"}, "RAF-1 kinase": {"target": "T7, RAF-1 kinase (Homo sapiens, UniProt P04049)", "T7 construct": "gene RAF1", "experiment": "biochemical", "design": "ExpresS Diversity kinase profile (Eurofins Cerep P10), per cent inhibition", "details": "read-out: Inhibition of reference binding (Table 4)"}, "PKA": {"target": "T8, PKA (Homo sapiens, UniProt P17612)", "T8 construct": "gene PRKACA", "experiment": "biochemical", "design": "ExpresS Diversity kinase profile (Eurofins Cerep P10), per cent inhibition", "details": "read-out: Inhibition of reference binding (Table 4)"}, "PDK1": {"target": "T9, PDK1 (Homo sapiens, UniProt O15530)", "T9 construct": "gene PDPK1", "T9 sequence (O15530 whole entry)": "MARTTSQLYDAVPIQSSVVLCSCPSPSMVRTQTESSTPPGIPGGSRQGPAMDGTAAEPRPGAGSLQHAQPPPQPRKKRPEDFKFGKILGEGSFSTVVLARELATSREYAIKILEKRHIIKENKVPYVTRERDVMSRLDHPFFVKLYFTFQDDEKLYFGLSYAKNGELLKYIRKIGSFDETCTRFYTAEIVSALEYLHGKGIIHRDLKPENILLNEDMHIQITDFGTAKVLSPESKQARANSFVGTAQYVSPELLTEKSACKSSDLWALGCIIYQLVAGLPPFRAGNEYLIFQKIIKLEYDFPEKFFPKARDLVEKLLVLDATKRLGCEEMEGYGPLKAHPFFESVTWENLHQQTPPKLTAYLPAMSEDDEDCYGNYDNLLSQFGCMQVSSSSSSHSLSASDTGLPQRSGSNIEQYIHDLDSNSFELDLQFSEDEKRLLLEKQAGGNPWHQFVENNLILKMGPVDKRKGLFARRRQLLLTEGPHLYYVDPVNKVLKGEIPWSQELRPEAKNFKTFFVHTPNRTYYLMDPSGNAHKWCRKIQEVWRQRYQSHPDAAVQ", "experiment": "biochemical", "design": "ExpresS Diversity kinase profile (Eurofins Cerep P10), per cent inhibition", "details": "read-out: Inhibition of reference binding (Table 4)"}, "FGFR1 kinase": {"target": "FGFR1 kinase (Homo sapiens, UniProt P11362)", "sequence (P11362 whole entry)": "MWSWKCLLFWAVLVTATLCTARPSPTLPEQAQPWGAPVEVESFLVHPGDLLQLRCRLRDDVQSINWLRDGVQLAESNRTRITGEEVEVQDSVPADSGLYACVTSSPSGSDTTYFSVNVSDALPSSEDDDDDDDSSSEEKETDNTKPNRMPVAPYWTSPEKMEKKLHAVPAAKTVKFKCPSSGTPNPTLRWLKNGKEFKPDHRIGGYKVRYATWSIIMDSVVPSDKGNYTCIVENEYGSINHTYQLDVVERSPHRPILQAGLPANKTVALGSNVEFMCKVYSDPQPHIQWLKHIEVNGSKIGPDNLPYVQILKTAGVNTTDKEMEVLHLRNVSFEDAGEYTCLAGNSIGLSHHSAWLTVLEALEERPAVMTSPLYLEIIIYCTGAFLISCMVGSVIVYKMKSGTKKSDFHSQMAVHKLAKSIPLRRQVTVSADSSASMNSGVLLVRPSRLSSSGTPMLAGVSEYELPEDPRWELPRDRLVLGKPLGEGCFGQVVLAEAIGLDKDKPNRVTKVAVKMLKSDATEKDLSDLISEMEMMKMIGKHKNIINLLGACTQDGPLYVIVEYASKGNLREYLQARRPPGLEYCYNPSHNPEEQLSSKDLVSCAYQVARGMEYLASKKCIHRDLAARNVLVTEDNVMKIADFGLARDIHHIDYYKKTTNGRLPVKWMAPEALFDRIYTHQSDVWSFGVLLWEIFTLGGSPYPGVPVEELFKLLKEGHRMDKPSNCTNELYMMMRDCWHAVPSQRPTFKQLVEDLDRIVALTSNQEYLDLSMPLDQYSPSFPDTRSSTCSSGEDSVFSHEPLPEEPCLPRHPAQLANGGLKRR", "experiment": "biochemical", "design": "ExpresS Diversity kinase profile (Eurofins Cerep P10), per cent inhibition", "details": "read-out: Inhibition of reference binding (Table 4)"}, "PDGFRα": {"target": "T10, PDGFRα (Homo sapiens, UniProt P16234)", "T10 construct": "gene PDGFRA", "experiment": "biochemical", "design": "ExpresS Diversity kinase profile (Eurofins Cerep P10), per cent inhibition", "details": "read-out: Inhibition of reference binding (Table 4)"}, "GSK3β": {"target": "T11, GSK3β (Homo sapiens, UniProt P49841)", "T11 construct": "gene GSK3B", "T11 sequence (P49841 whole entry)": "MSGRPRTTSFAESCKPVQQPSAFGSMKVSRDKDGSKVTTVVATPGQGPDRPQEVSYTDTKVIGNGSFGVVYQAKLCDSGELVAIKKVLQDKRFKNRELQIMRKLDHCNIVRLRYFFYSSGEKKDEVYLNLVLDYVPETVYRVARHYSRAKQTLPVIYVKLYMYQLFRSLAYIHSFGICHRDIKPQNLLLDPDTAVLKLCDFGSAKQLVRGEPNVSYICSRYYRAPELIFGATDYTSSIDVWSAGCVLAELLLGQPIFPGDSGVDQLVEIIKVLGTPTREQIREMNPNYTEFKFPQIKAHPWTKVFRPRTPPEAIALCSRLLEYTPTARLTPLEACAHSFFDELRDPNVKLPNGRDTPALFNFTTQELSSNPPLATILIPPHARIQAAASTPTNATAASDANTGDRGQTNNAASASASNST", "experiment": "biochemical", "design": "ExpresS Diversity kinase profile (Eurofins Cerep P10), per cent inhibition", "details": "read-out: Inhibition of reference binding (Table 4)"}, "JAK3": {"target": "JAK3 (Homo sapiens, UniProt P52333)", "experiment": "biochemical", "design": "ExpresS Diversity kinase profile (Eurofins Cerep P10), per cent inhibition", "details": "read-out: Inhibition of reference binding (Table 4)"}, "CaMK2α": {"target": "T12, CaMK2α (Homo sapiens, UniProt Q9UQM7)", "T12 construct": "gene CAMK2A", "T12 sequence (Q9UQM7 whole entry)": "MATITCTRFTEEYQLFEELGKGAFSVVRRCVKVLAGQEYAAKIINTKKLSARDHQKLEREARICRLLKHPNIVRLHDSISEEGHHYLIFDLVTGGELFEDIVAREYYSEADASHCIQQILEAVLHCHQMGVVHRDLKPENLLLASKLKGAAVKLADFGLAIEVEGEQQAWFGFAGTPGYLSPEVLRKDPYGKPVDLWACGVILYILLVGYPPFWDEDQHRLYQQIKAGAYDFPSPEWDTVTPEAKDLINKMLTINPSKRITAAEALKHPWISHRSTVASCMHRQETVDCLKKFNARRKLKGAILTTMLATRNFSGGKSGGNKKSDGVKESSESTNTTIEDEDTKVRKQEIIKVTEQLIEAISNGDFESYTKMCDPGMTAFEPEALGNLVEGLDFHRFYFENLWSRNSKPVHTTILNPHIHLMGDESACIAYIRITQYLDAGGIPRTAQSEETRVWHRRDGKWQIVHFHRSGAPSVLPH", "experiment": "biochemical", "design": "ExpresS Diversity kinase profile (Eurofins Cerep P10), per cent inhibition", "details": "read-out: Inhibition of reference binding (Table 4)"}, "c-Met kinase": {"target": "c-Met kinase (Homo sapiens, UniProt P08581)", "experiment": "biochemical", "design": "ExpresS Diversity kinase profile (Eurofins Cerep P10), per cent inhibition", "details": "read-out: Inhibition of reference binding (Table 4)"}, "CDK2": {"target": "CDK2 (Homo sapiens, UniProt P24941)", "experiment": "biochemical", "design": "ExpresS Diversity kinase profile (Eurofins Cerep P10), per cent inhibition", "details": "read-out: Inhibition of reference binding (Table 4)"}, "TrkC-P75": {"target": "T13, TrkC-P75 (Homo sapiens, UniProt Q16288)", "T13 construct": "gene NTRK3", "experiment": "cell-based", "design": "PathHunter eXpress functional assay (DiscoverX tkMAX), inhibition of reference ligand response", "details": "read-out: % Inhibition of reference binding (Table 3)"}},
  "data": [
    {"smiles": "O=C(Nc1cc(Cl)ccc1O)c1cccc(S(=O)(=O)N2CCCCC2)c1", "note": "[compound 66, BDT001]", "values": [
      {"measurement": "inhibition at 10 µM", "setting": "PRLR-JAK2", "result": 1.9, "unit": "%"},
      {"measurement": "inhibition at 10 µM", "setting": "[1]", "result": 64, "unit": "%"},
      {"measurement": "inhibition at 10 µM", "setting": "c-Ret-GFRα2", "result": -4.1, "unit": "%"},
      {"measurement": "inhibition at 10 µM", "setting": "PKCbeta 2", "result": 1, "unit": "%"},
      {"measurement": "inhibition at 10 µM", "setting": "ROCK1", "result": 2, "unit": "%"},
      {"measurement": "inhibition at 10 µM", "setting": "PAK2", "result": -8, "unit": "%"},
      {"measurement": "inhibition at 10 µM", "setting": "Abl kinase", "result": 16, "unit": "%"},
      {"measurement": "inhibition at 10 µM", "setting": "JNK1", "result": 32, "unit": "%"},
      {"measurement": "inhibition at 10 µM", "setting": "EGFR kinase", "result": 4, "unit": "%"},
      {"measurement": "inhibition at 10 µM", "setting": "c-KIT", "result": -1, "unit": "%"},
      {"measurement": "inhibition at 10 µM", "setting": "KDR", "result": -6, "unit": "%"},
      {"measurement": "inhibition at 10 µM", "setting": "p38α kinase", "result": 23, "unit": "%"},
      {"measurement": "inhibition at 10 µM", "setting": "CHK2", "result": 6, "unit": "%"},
      {"measurement": "inhibition at 10 µM", "setting": "IRK", "result": -4, "unit": "%"},
      {"measurement": "inhibition at 10 µM", "setting": "EphA3 kinase", "result": 0, "unit": "%"},
      {"measurement": "inhibition at 10 µM", "setting": "Lck kinase", "result": -14, "unit": "%"},
      {"measurement": "inhibition at 10 µM", "setting": "RAF-1 kinase", "result": 11, "unit": "%"},
      {"measurement": "inhibition at 10 µM", "setting": "PKA", "result": 7, "unit": "%"},
      {"measurement": "inhibition at 10 µM", "setting": "PDK1", "result": 3, "unit": "%"},
      {"measurement": "inhibition at 10 µM", "setting": "FGFR1 kinase", "result": -7, "unit": "%"},
      {"measurement": "inhibition at 10 µM", "setting": "PDGFRα", "result": 40, "unit": "%"},
      {"measurement": "inhibition at 10 µM", "setting": "GSK3β", "result": 0, "unit": "%"},
      {"measurement": "inhibition at 10 µM", "setting": "JAK3", "result": -3, "unit": "%"},
      {"measurement": "inhibition at 10 µM", "setting": "CaMK2α", "result": 6, "unit": "%"},
      {"measurement": "inhibition at 10 µM", "setting": "c-Met kinase", "result": 0, "unit": "%"},
      {"measurement": "inhibition at 10 µM", "setting": "CDK2", "result": 33, "unit": "%"},
      {"measurement": "inhibition at 10 µM", "setting": "TrkC-P75", "result": 0.6, "unit": "%"}
    ]}
  ]
}
